Experimental data as given in ChEMBL document CHEMBL3817727, “Fluorinated thiazolidinols cause cell death in A549 lung cancer cells via PI3K/AKT/mTOR and MAPK/ERK signalling pathways” (Medchemcomm, 2016).
The source made the active and inactive calls. The rule behind the calls is not given here.

Key:
A549 [1] = assay: Cytotoxicity against human A549 cells assessed as reduction in cell viability after 24 hrs by MTT assay; format: functional, cell-based; conditions: A549, 24 h
MDA-MB-231 = assay: Cytotoxicity against human MDA-MB-231 cells assessed as reduction in cell viability after 24 hrs by MTT assay; format: functional, cell-based; conditions: MDA-MB-231, 24 h
HeLa = assay: Cytotoxicity against human HeLa cells assessed as reduction in cell viability after 24 hrs by MTT assay; format: functional, cell-based
MCF7 = assay: Cytotoxicity against human MCF7 cells assessed as reduction in cell viability after 24 hrs by MTT assay; format: functional, cell-based; conditions: MCF7, 24 h
A549 [2] = assay: Cell cycle arrest in human A549 cells assessed as accumulation at subG1 phase at 4 uM after 24 hrs by propidium iodide staining based flow cytometry (reference value: 1.11%); format: functional
A549 [3] = assay: Cell cycle arrest in human A549 cells assessed as accumulation at G0/G1 phase at 4 uM after 24 hrs by propidium iodide staining based flow cytometry (reference value: 69.5%); format: functional
A549 [4] = assay: Cell cycle arrest in human A549 cells assessed as accumulation at S phase at 4 uM after 24 hrs by propidium iodide staining based flow cytometry (reference value: 8.85%); format: functional
A549 [5] = assay: Cell cycle arrest in human A549 cells assessed as accumulation at G2/M phase at 4 uM after 24 hrs by propidium iodide staining based flow cytometry (reference value: 21.58%); format: functional
A549 [6] = assay: Induction of cell death in human A549 cells assessed as increase in LC3-2 expression after 24 hrs by Western blot analysis; format: functional, cell-based
A549 [7] = assay: Inhibition of PI3K/Akt/mTOR signalling in human A549 cells assessed as downregulation of Akt expression at 4 uM after 24 hrs by Western blot analysis; format: cell-based
A549 [8] = assay: Induction of autophagy in human A549 cells assessed as increase in Atg7 expression after 24 hrs by Western blot analysis; format: functional, cell-based
A549 [9] = assay: Inhibition of PI3K/Akt/mTOR signalling in human A549 cells assessed as downregulation of PI3K expression at 4 uM after 24 hrs by Western blot analysis; format: cell-based
A549 [10] = assay: Inhibition of PI3K/Akt/mTOR signalling in human A549 cells assessed as reduction in Akt phosphorylation at Ser-473 residue at 4 uM after 24 hrs by Western blot analysis; format: cell-based
A549 [11] = assay: Inhibition of PI3K/Akt/mTOR signalling in human A549 cells assessed as downregulation of mTOR expression at 4 uM after 24 hrs by Western blot analysis; format: cell-based
A549 [12] = assay: Inhibition of RAS/MEK/ERK signalling in human A549 cells assessed as decrease in phosphorylated MEK1/2 level at 4 uM after 24 hrs by Western blot analysis; format: cell-based
A549 [13] = assay: Inhibition of RAS/MEK/ERK signalling in human A549 cells assessed as decrease in phosphorylated ERK1/2 level at 4 uM after 24 hrs by Western blot analysis; format: cell-based
A549 [14] = assay: Upregulation of PTEN expression in human A549 cells at 4 uM after 24 hrs by Cy-3 staining based immunoblot analysis; format: functional, cell-based
A549 [15] = assay: Induction of cell death in human A549 cells assessed as LC3-mediated cytoplasmic vacuolation by Hoechst staining based assay; format: functional
A549 [16] = assay: Cell cycle arrest in human A549 cells assessed as accumulation at subG1 phase at 10 uM after 24 hrs by propidium iodide staining based flow cytometry (reference value: 1.11%); format: functional
A549 [17] = assay: Cell cycle arrest in human A549 cells assessed as accumulation at G0/G1 phase at 10 uM after 24 hrs by propidium iodide staining based flow cytometry (reference value: 69.5%); format: functional
A549 [18] = assay: Cell cycle arrest in human A549 cells assessed as accumulation at S phase at 10 uM after 24 hrs by propidium iodide staining based flow cytometry (reference value: 8.85%); format: functional
A549 [19] = assay: Cell cycle arrest in human A549 cells assessed as accumulation at G2/M phase at 10 uM after 24 hrs by propidium iodide staining based flow cytometry (reference value: 21.58%); format: functional

| Compound | IC50 (A549 [1]) [µM] | IC50 (MDA-MB-231) [µM] | IC50 (HeLa) [µM] | IC50 (MCF7) [µM] | other results |
| --- | --- | --- | --- | --- | --- |
| COc1ccc(N2/C(=N/c3ccc(F)cc3)SCC2(O)C(F)(F)F)cc1 (centres undefined) | 4.58 | 6.64 | 6.98 | 28.7 |  |
| OC1(C(F)(F)F)CS/C(=N\c2ccccc2)N1CCc1ccccn1 (centres undefined) | 20.1 | 21.5 | 28.5 | 25.9 |  |
| CC(C)(C)N1/C(=N/c2ccc(Cl)c(C(F)(F)F)c2)SCC1(O)C(F)(F)F (centres undefined) | 3.26 | 4.03 | 5.54 | 32.3 | Activity (A549 [2]): 8.63%; Activity (A549 [3]): 82.31%; Activity (A549 [4]): 3.05%; Activity (A549 [5]): 6.79%; Activity (A549 [6]): Active; inhibition (A549 [7]): Active; Activity (A549 [8]): Active; inhibition (A549 [9]): Active; inhibition (A549 [10]): Active; inhibition (A549 [11]): Active; inhibition (A549 [12]): Active; inhibition (A549 [13]): Active; Activity (A549 [14]): Active |
| OC1(C(F)(F)F)CS/C(=N\c2ccc(F)cc2)N1c1ccc(F)cc1 (centres undefined) | 14.8 | 21.3 | 30.7 | 34.1 |  |
| OC1(C(F)(F)F)CS/C(=N\c2ccc(Cl)c(C(F)(F)F)c2)N1CCc1ccccn1 (centres undefined) | 6.02 | 19.6 | 7.12 | 11.3 |  |
| OC1(C(F)(F)F)CS/C(=N\c2ccc(F)cc2)N1c1ccccc1 (centres undefined) | 17.1 | 19.6 | 32.4 | 25.8 |  |
| OC1(C(F)(F)F)CS/C(=N\c2ccccc2)N1Cc1cccs1 (centres undefined) | 11.1 | 23.1 | 24.8 | 33.8 |  |
| OC1(C(F)(F)F)CS/C(=N\c2ccccc2)N1CCc1c[nH]c2ccccc12 (centres undefined) | 10.6 | 20.6 | 27.7 | 26.6 |  |
| OC1(C(F)(F)F)CS/C(=N\c2ccccc2)N1C1CCCCC1 (centres undefined) | 13.8 | 22.5 | 28.2 | 30.1 |  |
| COc1ccc(N2/C(=N/c3ccc(C(F)(F)F)cc3)SCC2(O)C(F)(F)F)cc1 (centres undefined) | 15.2 | 20.6 | 16.8 | 29.2 |  |
| OC1(C(F)(F)F)CS/C(=N\c2ccccc2)N1Cc1ccco1 (centres undefined) | 8.26 | 21.6 | 24.8 | 29.4 |  |
| OC1(C(F)(F)F)CS/C(=N\c2ccc(Cl)c(C(F)(F)F)c2)N1CCN1CCOCC1 (centres undefined) | 4.15 | 5.92 | 6.24 | 18.2 | Activity (A549 [2]): 6.04%; Activity (A549 [3]): 81.78%; Activity (A549 [4]): 1.89%; Activity (A549 [5]): 10.63%; Activity (A549 [6]): Active; inhibition (A549 [7]): Active; Activity (A549 [8]): Active; inhibition (A549 [9]): Active; inhibition (A549 [10]): Active; inhibition (A549 [11]): Active; inhibition (A549 [12]): Active; inhibition (A549 [13]): Active; Activity (A549 [14]): Active |
| OC1(C(F)(F)F)CS/C(=N\c2ccccc2)N1c1ccccc1 (centres undefined) | 18.6 | 20.9 | 29.4 | 25 |  |
| OC1(C(F)(F)F)CS/C(=N\c2ccccc2)N1CCN1CCOCC1 (centres undefined) | 21.2 | 23.8 | 26.1 | 37.4 |  |
| OC1(C(F)(F)F)CS/C(=N\c2ccc(Cl)c(C(F)(F)F)c2)N1Cc1ccco1 (centres undefined) | 3.82 | 5.12 | 5.84 | 15.1 | Activity (A549 [2]): 4.99%; Activity (A549 [3]): 79.77%; Activity (A549 [4]): 4.11%; Activity (A549 [5]): 11.8%; Activity (A549 [15]): Active; Activity (A549 [6]): Active; inhibition (A549 [7]): Active; Activity (A549 [8]): Active; inhibition (A549 [9]): Active; inhibition (A549 [10]): Active; inhibition (A549 [11]): Active; inhibition (A549 [12]): Active; inhibition (A549 [13]): Active; Activity (A549 [14]): Active |
| OC1(C(F)(F)F)CS/C(=N\c2cccc(C(F)(F)F)c2)N1c1cccc(C(F)(F)F)c1 (centres undefined) | 2.84 | 3.32 | 3.57 | 6.69 | Activity (A549 [2]): 3.81%; Activity (A549 [3]): 86.61%; Activity (A549 [4]): 1.71%; Activity (A549 [5]): 8.15%; Activity (A549 [15]): Active; Activity (A549 [6]): Active; inhibition (A549 [7]): Active; Activity (A549 [8]): Active; inhibition (A549 [9]): Active; inhibition (A549 [10]): Active; inhibition (A549 [11]): Active; inhibition (A549 [12]): Active; inhibition (A549 [13]): Active; Activity (A549 [14]): Active |
| CCCN1/C(=N/c2ccccc2)SCC1(O)C(F)(F)F (centres undefined) | 14.3 | 18.7 | 24.4 | 22.5 |  |
| OC1(C(F)(F)F)CS/C(=N\c2ccc(F)c(Cl)c2)N1c1ccccc1 (centres undefined) | 16.8 | 19 | 19.9 | 22.9 |  |
| OC1(C(F)(F)F)CS/C(=N\c2ccc(C(F)(F)F)cc2)N1Cc1ccco1 (centres undefined) | 13.1 | 21.7 | 19.7 | 25.1 |  |
| OC1(C(F)(F)F)CS/C(=N\c2ccc(Cl)c(C(F)(F)F)c2)N1Cc1cccs1 (centres undefined) | 3.57 | 4.48 | 6.41 | 11.4 | Activity (A549 [2]): 3.57%; Activity (A549 [3]): 75.3%; Activity (A549 [4]): 5.81%; Activity (A549 [5]): 16.15%; Activity (A549 [15]): Active; Activity (A549 [6]): Active; inhibition (A549 [7]): Active; Activity (A549 [8]): Active; inhibition (A549 [9]): Active; inhibition (A549 [10]): Active; inhibition (A549 [11]): Active; inhibition (A549 [12]): Active; inhibition (A549 [13]): Active; Activity (A549 [14]): Active |
| OC1(C(F)(F)F)CS/C(=N\c2ccccc2)N1C1CC1 (centres undefined) | 15.1 | 22.7 | 24.6 | 29.2 |  |
| O=c1cc(N2CCOCC2)oc2c(-c3ccccc3)cccc12 [LY-294002] | 17.7 | 9.7 | 20.5 | 29.1 | Activity (A549 [16]): 5.15%; Activity (A549 [17]): 82.95%; Activity (A549 [18]): 3.24%; Activity (A549 [19]): 9.24% |
| OC1(C(F)(F)F)CS/C(=N\c2ccc(C(F)(F)F)cc2)N1CCc1ccccn1 (centres undefined) | 12.8 | 20.9 | 21 | 25.3 |  |
